# Earlier results, collected in patent US20100104622A1, “Ligand Targeted Nanocapsules for the delivery of RNAi and other Agents” (priority 2008, published 2010).
# Tested on: advanced stage melanoma
# Settings: melanoma patients
compound,measurement,value
COc1cccc2c1C(=O)c1c(O)c3c(c(O)c1C2=O)C[C@@](O)(C(=O)CO)C[C@@H]3O[C@H]1C[C@H](N)[C@H](O)[C@H](C)O1 [Doxorubicin],efficacy in advanced stage melanoma,essentially ineffective
